Data published in patent US8440637B2, “Combination treatment for the treatment of hepatitis C virus infection” (priority 2007, dated 2013).
Strand notation (5' to 3'): a small letter for the sugar, then the base; units joined by * are phosphorothioate-linked, units joined directly phosphodiester-linked; [ ] holds rarer units or linkages, { } end groups; capitals alone tell only the bases. l = locked nucleic acid (LNA); [5mC] = 5-methylcytosine; d = 2'-deoxy (DNA)

Legend:
miR-122a [1] = assay: Melting temperature (Tm) of LNA anti-miR/miR-122a RNA duplex; assay type: physicochemical, human; conditions: for Tm (° C.): Table 2, towards synthetic miR-122a RNA oligonucleotide with phosphorothioate linkages, PS backbone; for Tm, oligo to miR-122 RNA complement: miR-122a
Description: The melting temperatures were assessed towards the mature miR-122a sequence, using a synthetic miR-122a RNA oligonucleotide with phosphorothioate linkaged.
The LNA anti-miR/miR-122a oligo duplex was diluted to 3 μM in 500 μl RNase free H2O, which was then mixed with 500 μl 2× dimerization buffer (final oligo/duplex conc. 1.5 μM, 2× Tm buffer: 200 mM NaCl, 0.2 mM EDTA, 20 mM NaP, pH 7.0, DEPC treated to remove RNases). The mix was first heated to 95 degrees for 3 minutes, then allowed to cool at room temperature (RT) for 30 minutes.
Following RT incubation Tm was measured on Lambda 40 UV/VIS Spectrophotometer with peltier temperature progammer PTP6 using PE Templab software (Perkin Elmer). The temperature was ramped up from 20° C. to 95° C. and then down again to 20° C., continuously recording absorption at 260 nm. First derivative and local maximums of both the melting and annealing was used to assess melting/annealing point (Tm), both should give similar/same Tm values. For the first derivative 91 points was used to calculate the slope.

miR-122a [2] = assay: miR-122a levels in mouse liver by microRNA specific qPCR; assay type: in vivo
Description: Total RNA was extracted from liver samples as described above and analysed for miR-122a levels by microRNA specific QPCR.
In vivo study: Ten groups of animals (female C57/BL6; 3 mice per group) were treated in the following manner. Group 1 animals were injected with 0.2 ml saline by i.p. on day 0, day 2 and day 4. Groups 2-10 were dosed by i.p. with three different conc. (25 mg/kg, 5 mg/kg and 1 mg/kg) of either LNA antimiR-122a/SEQ ID NO: 61 (group 2-4), LNA antimir-122a/SEQ ID NO: 66 (group 5-7) or LNA antimir-122a/SEQ ID NO: 63 (group 8-10); the LNA antimir-122a sequences are given in the Table 1. All three LNA antimiR-122a oligonucleotides target the liver-specific miR-122a. The doses were calculated from the Day 0 body weights of each animal.
The animals were sacrificed 48 hours after last dose (Day 6), retro-orbital blood was collected in tubes containing EDTA and the plasma fraction harvested and stored frozen −80° C. for cholesterol analysis. At sacrifice livers were dissected and one portion was cut into 5 mm cubes and immersed in 5 volumes of ice-cold RNAlater. A second portion was snap frozen in liquid nitrogen and stored for cryo-sectioning.
Total RNA was extracted from liver samples using Trizol reagent according to the manufacturer's recommendations (Invitrogen, USA) and analysed for miR-122a levels by microRNA-specific QPCR according to the manufacturer's recommendations (Ambion, USA). […]
NMRI female mice were treated with indicated doses of LNA-antimiR (SEQ ID NO: 61) along with a mismatch control (m, SEQ ID NO: 65), saline and antagomir (SPC3595) for three consecutive days and sacrificed 24 hours after last dose (as in example 11 “old design”, n=5). miR-122 levels were analyzed by qPCR and normalized to the saline treated group.
C57BL/6J female mice were fed on high fat diet for 13 weeks before the initiation of the SEQ ID NO: 63 treatment. […] Both hypercholesterolemic and normal mice were treated i.p. twice weekly with 5 mg/kg SEQ ID NO: 63 and the corresponding mismatch control for a study period of 5½ weeks. Blood samples were collected weekly and total plasma cholesterol was measured during the entire course of the study. Upon sacrificing the mice, liver and blood samples were prepared for total RNA extraction, miRNA and mRNA quantification, assessment of the serum transaminase levels, and liver histology.
The miR-122 and let-7a microRNA levels were quantified with TaqMan microRNA Assay (Applied Biosystems) following the manufacturer's instructions. The RT reaction was diluted ten times in water and subsequently used for real time PCR amplification according to the manufacturer's instructions. A two-fold cDNA dilution series from liver total RNA of a saline-treated animal or mock transfected cells cDNA reaction (using 2.5 times more total RNA than in samples) served as standard to ensure a linear range (Ct versus relative copy number) of the amplification. Applied Biosystems 7500 or 7900 real-time PCR instrument was used for amplification.

[3] = i.p. on day 0, 2 and 4 at 25, 5 and 1 mg/kg, 48 hours after last dose

Substance	Tm (° C.) (miR-122a [1])	Tm, oligo to miR-122 RNA complement (miR-122a [1])	IC50, miR-122a silencing in liver (miR-122a [2]; female C57/BL6, i.p. on day 0, 2 and 4 at 25, 5 and 1 mg/kg, 48 hours after last dose)	miR-122 levels in liver after long-term treatment (in words) (miR-122a [2]; hypercholesterolemic and normal mice, 5 mg/kg i.p. twice weekly for 5½ weeks)	efficacy in vivo in miR-122a silencing compared to SEQ ID NO: 61 (in words) (miR-122a [2]; [3])	miR-122a inhibition (in words) (miR-122a [2]; 25 mg/kg i.v. on 3 successive days, Day 16)	miR-122a levels (in words) (miR-122a [2]; 25 mg/kg i.v. on 3 successive days, Day 23)	miR-122a inhibition compared to saline control (in words) (miR-122a [2]; 25 mg/kg i.v. on 3 successive days, sacrifice Day 9, 16 or 23)	IC50, miR-122a levels in liver (miR-122a [2]; i.v. on 3 successive days, 2.5-25 mg/kg, 24 hour after last dose)	reduction of miR-122 levels (miR-122a [2]; one week after last LNA dose)
5′-CcAttGTcaCaCtCC-3′ (antisense CCATTGTCACACTCC; sugars from the 5' end ldlddllddldldll, backbone and methylation of C not given here) [SEQ ID NO: 63]	78 °C	79 °C	~1 mg/kg	comparable profile in both hypercholesterolemic and normal mice	most potent					
5′-ccAttGtcAcaCtcCa-3′ (antisense CCATTGTCACACTCCA; sugars from the 5' end ddlddlddlddlddld, backbone and methylation of C not given here) [SEQ ID NO: 61]	69 °C	69 °C				inhibition could still be detected	approached those of the saline group	two-fold inhibition	3 to 5 mg/kg	50%
5′-AttGTcaCaCtCC-3′ (antisense lA*dT*dT*lG*lT*dC*dA*l[5mC]*dA*l[5mC]*dT*l[5mC]*l[5mC]) [SEQ ID NO: 66]		74 °C			significantly improved efficacy in vivo					
